Laboratory results reported in PubChem BioAssay (NCI).
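Compound exposure: 48 hours, 5 concentrations, 96-well plates. Here, GI50 denotes the concentration required for 50% inhibition of growth. The concentration for full growth arrest is given as TGI.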

Key:
Assay in all cases: inhibition of tumour cell growth, NCI panel, 48 h
786-0 renal = tested on: 786-0 renal
A498 renal = tested on: A498 renal
A549 NSCLC = tested on: A549 NSCLC
ACHN renal = tested on: ACHN renal
CAKI-1 renal = tested on: CAKI-1 renal
COLO 205 colon = tested on: COLO 205 colon
EKVX NSCLC = tested on: EKVX NSCLC
HCC-2998 colon = tested on: HCC-2998 colon
HCT-116 colon = tested on: HCT-116 colon
HCT-15 colon = tested on: HCT-15 colon
HL-60(TB) leukemia = tested on: HL-60(TB) leukemia
HOP-62 NSCLC = tested on: HOP-62 NSCLC
HOP-92 NSCLC = tested on: HOP-92 NSCLC
HT29 colon = tested on: HT29 colon
IGROV1 ovarian = tested on: IGROV1 ovarian
K-562 leukemia = tested on: K-562 leukemia
KM20L2 colon = tested on: KM20L2 colon
LOX IMVI melanoma = tested on: LOX IMVI melanoma
M14 melanoma = tested on: M14 melanoma
MALME-3M melanoma = tested on: MALME-3M melanoma
MOLT-4 leukemia = tested on: MOLT-4 leukemia
NCI-H226 lung = tested on: NCI-H226 lung
NCI-H23 lung = tested on: NCI-H23 lung
NCI-H460 lung = tested on: NCI-H460 lung
NCI-H522 lung = tested on: NCI-H522 lung
OVCAR-4 ovarian = tested on: OVCAR-4 ovarian
OVCAR-5 ovarian = tested on: OVCAR-5 ovarian
OVCAR-8 ovarian = tested on: OVCAR-8 ovarian
RPMI-8226 leukemia = tested on: RPMI-8226 leukemia
RXF 393 renal = tested on: RXF 393 renal
SF-268 CNS = tested on: SF-268 CNS
SK-MEL-2 melanoma = tested on: SK-MEL-2 melanoma
SK-MEL-28 melanoma = tested on: SK-MEL-28 melanoma
SK-MEL-5 melanoma = tested on: SK-MEL-5 melanoma
SK-OV-3 ovarian = tested on: SK-OV-3 ovarian
SN12C renal = tested on: SN12C renal
SNB-19 CNS = tested on: SNB-19 CNS
SNB-75 CNS = tested on: SNB-75 CNS
SW-620 colon = tested on: SW-620 colon
TK-10 renal = tested on: TK-10 renal
U251 CNS = tested on: U251 CNS
UACC-257 melanoma = tested on: UACC-257 melanoma
UACC-62 melanoma = tested on: UACC-62 melanoma
UO-31 renal = tested on: UO-31 renal
BT-549 breast = tested on: BT-549 breast
CCRF-CEM leukemia = tested on: CCRF-CEM leukemia
DU-145 prostate = tested on: DU-145 prostate
HS 578T breast = tested on: HS 578T breast
KM12 colon = tested on: KM12 colon
MCF7 breast = tested on: MCF7 breast
MDA-MB-231 breast = tested on: MDA-MB-231 breast
MDA-MB-435 = tested on: MDA-MB-435
MDA-N = tested on: MDA-N
NCI/ADR-RES ovarian = tested on: NCI/ADR-RES ovarian
OVCAR-3 ovarian = tested on: OVCAR-3 ovarian
PC-3 prostate = tested on: PC-3 prostate
SF-295 CNS = tested on: SF-295 CNS
SR leukemia = tested on: SR leukemia
T-47D breast = tested on: T-47D breast

Compound: O=C([CH-]C(=O)c1ccccc1)c1ccccc1.O=C([CH-]C(=O)c1ccccc1)c1ccccc1.[La+3].[OH-].[OH3+]
- GI50 (786-0 renal): 16 µM
- TGI (786-0 renal): 65.1 µM
- GI50 (A498 renal): 17.9 µM
- TGI (A498 renal): 87.7 µM
- GI50 (A549 NSCLC): 20.6 µM
- TGI (A549 NSCLC): 55.2 µM
- GI50 (ACHN renal): 19.6 µM
- TGI (ACHN renal): > 100 µM
- GI50 (CAKI-1 renal): 17.4 µM
- TGI (CAKI-1 renal): 56.8 µM
- GI50 (COLO 205 colon): 22.6 µM
- TGI (COLO 205 colon): 61.5 µM
- GI50 (EKVX NSCLC): 14.3 µM
- TGI (EKVX NSCLC): 51.9 µM
- GI50 (HCC-2998 colon): 16.1 µM
- TGI (HCC-2998 colon): 48.1 µM
- GI50 (HCT-116 colon): 7.89 µM
- TGI (HCT-116 colon): 29.6 µM
- GI50 (HCT-15 colon): 13 µM
- TGI (HCT-15 colon): 48.1 µM
- GI50 (HL-60(TB) leukemia): 3.87 µM
- TGI (HL-60(TB) leukemia): 22.7 µM
- GI50 (HOP-62 NSCLC): 10.9 µM
- TGI (HOP-62 NSCLC): 41.9 µM
- GI50 (HOP-92 NSCLC): 15.3 µM
- TGI (HOP-92 NSCLC): 38.9 µM
- GI50 (HT29 colon): 19.4 µM
- TGI (HT29 colon): 50.1 µM
- GI50 (IGROV1 ovarian): 25.8 µM
- TGI (IGROV1 ovarian): > 100 µM
- GI50 (K-562 leukemia): 5.24 µM
- TGI (K-562 leukemia): > 100 µM
- GI50 (KM20L2 colon): 22.4 µM
- TGI (KM20L2 colon): 68.7 µM
- GI50 (LOX IMVI melanoma): 13.5 µM
- TGI (LOX IMVI melanoma): 37.1 µM
- GI50 (M14 melanoma): 16.8 µM
- TGI (M14 melanoma): 37.6 µM
- GI50 (MALME-3M melanoma): 23 µM
- TGI (MALME-3M melanoma): 69.5 µM
- GI50 (MOLT-4 leukemia): 6.24 µM
- TGI (MOLT-4 leukemia): 38.6 µM
- GI50 (NCI-H226 lung): 1.67 µM
- TGI (NCI-H226 lung): 17.7 µM
- GI50 (NCI-H23 lung): 12.2 µM
- TGI (NCI-H23 lung): 48.6 µM
- GI50 (NCI-H460 lung): 8.66 µM
- TGI (NCI-H460 lung): > 100 µM
- GI50 (NCI-H522 lung): 3.29 µM
- TGI (NCI-H522 lung): 19.8 µM
- GI50 (OVCAR-4 ovarian): 26.1 µM
- TGI (OVCAR-4 ovarian): > 100 µM
- GI50 (OVCAR-5 ovarian): 65.8 µM
- TGI (OVCAR-5 ovarian): > 100 µM
- GI50 (OVCAR-8 ovarian): 6.67 µM
- TGI (OVCAR-8 ovarian): 65.4 µM
- GI50 (RPMI-8226 leukemia): 11.1 µM
- TGI (RPMI-8226 leukemia): 49.9 µM
- GI50 (RXF 393 renal): 2.99 µM
- TGI (RXF 393 renal): 29.6 µM
- GI50 (SF-268 CNS): 13.3 µM
- TGI (SF-268 CNS): 59.5 µM
- GI50 (SK-MEL-2 melanoma): 15.1 µM
- TGI (SK-MEL-2 melanoma): 37.8 µM
- GI50 (SK-MEL-28 melanoma): 17.1 µM
- TGI (SK-MEL-28 melanoma): 57.2 µM
- GI50 (SK-MEL-5 melanoma): 10.3 µM
- TGI (SK-MEL-5 melanoma): 23.9 µM
- GI50 (SK-OV-3 ovarian): 21.3 µM
- TGI (SK-OV-3 ovarian): 69.8 µM
- GI50 (SN12C renal): 18.4 µM
- TGI (SN12C renal): 68 µM
- GI50 (SNB-19 CNS): 19.2 µM
- TGI (SNB-19 CNS): 66.3 µM
- GI50 (SNB-75 CNS): 5.02 µM
- TGI (SNB-75 CNS): 21.6 µM
- GI50 (SW-620 colon): 9.82 µM
- TGI (SW-620 colon): > 100 µM
- GI50 (TK-10 renal): 32.1 µM
- TGI (TK-10 renal): > 100 µM
- GI50 (U251 CNS): 15.2 µM
- TGI (U251 CNS): > 100 µM
- GI50 (UACC-257 melanoma): 16.3 µM
- TGI (UACC-257 melanoma): 46.5 µM
- GI50 (UACC-62 melanoma): 14 µM
- TGI (UACC-62 melanoma): 44.7 µM
- GI50 (UO-31 renal): 6.62 µM
- TGI (UO-31 renal): 31.6 µM

Compound: CCCCCCCCCCCCCCCCCCNc1ccn(C2OC(COP(=O)(O)OCC3OC(n4cc(F)c(=O)[nH]c4=O)CC3O)C(O)C2O)c(=O)n1 (stereo unspecified)
- TGI (786-0 renal): > 100 µM
- TGI (A498 renal): > 100 µM
- TGI (A549 NSCLC): > 100 µM
- TGI (ACHN renal): > 100 µM
- TGI (BT-549 breast): > 79.7 µM
- TGI (CAKI-1 renal): > 100 µM
- TGI (CCRF-CEM leukemia): > 49.7 µM
- TGI (COLO 205 colon): > 80.4 µM
- TGI (DU-145 prostate): > 100 µM
- TGI (EKVX NSCLC): > 100 µM
- TGI (HCC-2998 colon): > 100 µM
- TGI (HCT-116 colon): > 100 µM
- TGI (HCT-15 colon): > 100 µM
- TGI (HL-60(TB) leukemia): 22.1 µM
- TGI (HOP-62 NSCLC): > 100 µM
- TGI (HOP-92 NSCLC): > 100 µM
- TGI (HS 578T breast): > 100 µM
- TGI (HT29 colon): > 84.3 µM
- TGI (IGROV1 ovarian): 35.8 µM
- TGI (K-562 leukemia): > 100 µM
- TGI (KM12 colon): 41.8 µM
- TGI (LOX IMVI melanoma): 18.2 µM
- TGI (M14 melanoma): > 78.1 µM
- TGI (MALME-3M melanoma): > 100 µM
- TGI (MCF7 breast): > 48.6 µM
- TGI (MDA-MB-231 breast): > 100 µM
- TGI (MDA-MB-435): > 100 µM
- TGI (MDA-N): > 100 µM
- TGI (MOLT-4 leukemia): 25.2 µM
- TGI (NCI-H226 lung): > 100 µM
- TGI (NCI-H23 lung): 17.9 µM
- TGI (NCI-H460 lung): > 100 µM
- TGI (NCI-H522 lung): > 100 µM
- TGI (NCI/ADR-RES ovarian): > 54.8 µM
- TGI (OVCAR-3 ovarian): > 100 µM
- TGI (OVCAR-4 ovarian): > 100 µM
- TGI (OVCAR-5 ovarian): 39.7 µM
- TGI (OVCAR-8 ovarian): > 100 µM
- TGI (PC-3 prostate): 19.7 µM
- TGI (RPMI-8226 leukemia): > 53.3 µM
- TGI (RXF 393 renal): 35.6 µM
- TGI (SF-268 CNS): > 50 µM
- TGI (SF-295 CNS): > 100 µM
- TGI (SK-MEL-2 melanoma): > 100 µM
- TGI (SK-MEL-28 melanoma): > 100 µM
- TGI (SK-MEL-5 melanoma): > 100 µM
- TGI (SK-OV-3 ovarian): > 100 µM
- TGI (SN12C renal): > 100 µM
- TGI (SNB-19 CNS): > 100 µM
- TGI (SNB-75 CNS): > 100 µM
- TGI (SR leukemia): 28.8 µM
- TGI (SW-620 colon): > 100 µM
- TGI (T-47D breast): > 100 µM
- TGI (TK-10 renal): > 55.5 µM
- TGI (U251 CNS): > 100 µM
- TGI (UACC-257 melanoma): > 100 µM
- TGI (UACC-62 melanoma): > 74.4 µM
- TGI (UO-31 renal): > 100 µM
